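Compound exposure: 48 hours, 5 concentrations, 96-well plates. GI50 = concentration required for 50% inhibition of growth. TGI: concentration producing complete growth inhibition.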
Legend:
Assay in all cases: inhibition of tumour cell growth, NCI panel, 48 h; in the data active means GI50 below about 0.43 µM; inactive means the rest
U251 CNS = tested on: U251 CNS
K-562 leukemia = tested on: K-562 leukemia
OVCAR-4 ovarian = tested on: OVCAR-4 ovarian
SW-620 colon = tested on: SW-620 colon
OVCAR-3 ovarian = tested on: OVCAR-3 ovarian
UO-31 renal = tested on: UO-31 renal
MCF7 breast = tested on: MCF7 breast
A498 renal = tested on: A498 renal
OVCAR-8 ovarian = tested on: OVCAR-8 ovarian
SK-OV-3 ovarian = tested on: SK-OV-3 ovarian
DU-145 prostate = tested on: DU-145 prostate
SF-539 CNS = tested on: SF-539 CNS
UACC-62 melanoma = tested on: UACC-62 melanoma
SK-MEL-28 melanoma = tested on: SK-MEL-28 melanoma
T-47D breast = tested on: T-47D breast
EKVX NSCLC = tested on: EKVX NSCLC
HS 578T breast = tested on: HS 578T breast
ACHN renal = tested on: ACHN renal
SNB-75 CNS = tested on: SNB-75 CNS
SF-295 CNS = tested on: SF-295 CNS
HOP-62 NSCLC = tested on: HOP-62 NSCLC
HL-60(TB) leukemia = tested on: HL-60(TB) leukemia
HCT-15 colon = tested on: HCT-15 colon
CAKI-1 renal = tested on: CAKI-1 renal
LOX IMVI melanoma = tested on: LOX IMVI melanoma
PC-3 prostate = tested on: PC-3 prostate
NCI-H23 lung = tested on: NCI-H23 lung
COLO 205 colon = tested on: COLO 205 colon
SR leukemia = tested on: SR leukemia
BT-549 breast = tested on: BT-549 breast

COc1ccc(/C=C/c2nc3ccccc3c(=O)n2CC(=O)Nc2ccccc2)cc1
> 28.9 µM: TGI (T-47D breast)
10.9 µM: TGI (U251 CNS)
19.2 µM: TGI (HOP-62 NSCLC)
30.8 µM: TGI (SF-295 CNS)
> 100 µM: TGI (K-562 leukemia) | TGI (SW-620 colon) | TGI (OVCAR-3 ovarian) | TGI (MCF7 breast) | TGI (OVCAR-8 ovarian) | TGI (DU-145 prostate) | TGI (UACC-62 melanoma) | TGI (SK-MEL-28 melanoma) | TGI (EKVX NSCLC) | TGI (HL-60(TB) leukemia) | TGI (HCT-15 colon) | TGI (LOX IMVI melanoma) | TGI (PC-3 prostate) | TGI (SR leukemia) | TGI (BT-549 breast)
> 62.4 µM: TGI (NCI-H23 lung)
18.7 µM: TGI (SK-OV-3 ovarian)
2.49 µM: TGI (ACHN renal)
5.2 µM: TGI (A498 renal)
4.97 µM: TGI (SNB-75 CNS)
> 23.9 µM: TGI (CAKI-1 renal)
> 77.7 µM: TGI (COLO 205 colon)
inactive: GI50 (U251 CNS) 0.972 µM | GI50 (K-562 leukemia) > 100 µM | GI50 (OVCAR-4 ovarian) 0.734 µM | GI50 (SW-620 colon) > 21.3 µM | GI50 (OVCAR-3 ovarian) 3.91 µM | GI50 (UO-31 renal) 1.44 µM | GI50 (MCF7 breast) > 26 µM | GI50 (A498 renal) 2.23 µM | GI50 (OVCAR-8 ovarian) 4.74 µM | GI50 (SK-OV-3 ovarian) 2.98 µM | GI50 (DU-145 prostate) > 100 µM | GI50 (SF-539 CNS) 3.42 µM | GI50 (UACC-62 melanoma) > 62.4 µM | GI50 (SK-MEL-28 melanoma) > 100 µM | GI50 (T-47D breast) 1.8 µM | GI50 (EKVX NSCLC) > 69.4 µM | GI50 (HS 578T breast) 2.79 µM | GI50 (ACHN renal) 0.718 µM | GI50 (SNB-75 CNS) 1.27 µM | GI50 (SF-295 CNS) 2.48 µM | GI50 (HOP-62 NSCLC) 4.31 µM | GI50 (HL-60(TB) leukemia) > 100 µM | GI50 (HCT-15 colon) > 100 µM | GI50 (CAKI-1 renal) 1.7 µM | GI50 (LOX IMVI melanoma) 4.38 µM | GI50 (PC-3 prostate) > 100 µM | GI50 (NCI-H23 lung) 6.01 µM | GI50 (COLO 205 colon) > 37.3 µM | GI50 (SR leukemia) > 100 µM | GI50 (BT-549 breast) > 74.6 µM
14.5 µM: TGI (SF-539 CNS)
3.64 µM: TGI (UO-31 renal)
> 92.5 µM: TGI (HS 578T breast)

Source: PubChem BioAssay (NCI)
